Converted amounts (≈) assume the structure as drawn. “And” between values parts separate entries of the source, which are not always exact repeats. Equal values may be shown once. Read-outs that look alike come from different tables or passages of the source.
Legend:
[1] = tested on: WT S. aureus (ATCC 29213, WT); experiment: microbe, parasite or virus in culture; assay type: cell-based; conditions: WT GyrA and WT ParC, three independent replicates
MRSA clinical isolates = experiment: microbe, parasite or virus in culture; assay type: cell-based, S. aureus; conditions: for MIC: Staphylococcus aureus, MRSA, read-out: MIC
Experimental: (§1) MRSA and P. aeruginosa isolates were from Cubist Pharmaceuticals (Lexington, MA). VRE isolates were from a previously published collection. E. coli strains were obtained either from ATCC or Professor Cari Vanderpool (UIUC). A. baumannii isolates were obtained from Dr John Quale[51].
Susceptibility testing was performed in triplicate, using the microdilution broth method as outlined by the Clinical and Laboratory Standards Institute[52]. Mueller Hinton (MH) broth was used.

E. faecalis = experiment: microbe, parasite or virus in culture; assay type: cell-based; conditions: Enterococcus faecalis, E. faecalis
E. faecium = experiment: microbe, parasite or virus in culture; assay type: cell-based; conditions: Enterococcus faecium, E. faecium
Ent. Spp. = experiment: MIC, microdilution broth, Ent. Spp. VRE clinical isolate; assay type: cell-based; conditions: Enterococcus, C28036, gyrA Ser83Ile, parC Ser80Ile
Source text: as §1
(§2) Mueller Hinton (MH) broth was used.

VRE clinical isolates = experiment: MIC, VRE clinical isolates panel (summary by GyrA mutation); assay type: cell-based, Enterococcus; conditions: panel of VRE clinical isolates (n=22)
Source text: as §1, §2

E. coli = experiment: microbe, parasite or virus in culture; assay type: cell-based; conditions: Escherichia coli
Source text: as §1, §2

P. aeruginosa = experiment: MIC, microdilution broth, P. aeruginosa; assay type: cell-based
Source text: as §1, §2

A. baumannii = experiment: MIC, microdilution broth, A. baumannii; assay type: cell-based; conditions: Acinetobacter baumannii
Source text: as §1, §2

WT E. coli DNA gyrase = biological target: T1, WT E. coli DNA gyrase (Escherichia coli, UniProt P0AES4+P0AES6); assay type: biochemical; conditions: DNA cleavage assay
T1 construct: His tag (pTRCHisA vector; purified on Ni-NTA); made in house; host or cells: E. coli One Shot BL21 Star (DE3)

S83R E. coli DNA gyrase = biological target: T2, S83R E. coli DNA gyrase (Escherichia coli, UniProt P0AES4+P0AES6, S83R); assay type: biochemical; conditions: DNA cleavage assay
T2 construct: His tag (pTRCHisA vector; purified on Ni-NTA); made in house; host or cells: E. coli One Shot BL21 Star (DE3)

[2] = tested on: resistant strains of ATCC 29213; experiment: microbe, parasite or virus in culture; assay type: cell-based, S. aureus
S. aureus (ATCC 29213) = experiment: Resistant mutant generation (resistance frequency); assay type: cell-based; conditions: low-level CIP-resistant strain 29213-C1
[3] = Pharmacokinetic assessment; assay type: in vivo, C57BL/6 mice; conditions: for Cmax: read-out: Cmax (peak serum concentration)
Experimental: (§3) The animal studies (PK, in-vivo toxicity and in-vivo efficacy) were carried out in strict accordance with the recommendations in the Guide for the Care and Use of Laboratory Animals of the National Institutes of Health. […] In these studies, 10- to 12-week-old female C57BL/6 mice purchased from Charles River were used. DNM, DNM-2 and DNM-3 were formulated as slurries at 8.3 mg ml^−1 in 25% Cremophor RH40/water (v/v). Before beginning the pharmacokinetic assessment, mice were first tested for their ability to tolerate the DNM, DNM-2 and DNM-3 at 50 mg kg^−1 (p.o.). […] At specified time points, mice were killed and blood was collected, centrifuged and the serum was frozen at −80 °C until analysis. The proteins in a 50-μl aliquot of serum were precipitated by the addition of 50 μl of acetonitrile and the sample was centrifuged to remove the proteins. Serum concentrations of DNM, DNM-2 and DNM-3 were determined by HPLC. PK parameters were determined using GraphPad Prism Version 5.00 for Windows.

[4] = Tolerability in mice (maximal tolerated dose); assay type: in vivo
Experimental: as §3

physchem = conditions: pH 7.4
Experimental: Three independent replicates of each compound were performed.

[5] = female, C57BL/6, mouse, in vivo, C57/BL6 mice, 50 mg kg-1 oral gavage, serum

CCn1c(=O)cc(C)c2cc3c(C)cc(=O)n4c3c(c21)OC4 [DNM-2]
MIC against S. aureus 29213 ([1]; ATCC 29213): 8 µg/mL (≈ 27 µM)
MIC ([1]; Staphylococcus aureus, ATCC29213, ATCC 29213, read-out: MIC against S. aureus 29213): 8 µg/mL (≈ 27 µM)
MIC (MRSA clinical isolates; strain SAU.1118): 2 µg/mL (≈ 6.75 µM)
MIC (MRSA clinical isolates; strain SAU.2996): 0.5 µg/mL (≈ 1.69 µM)
MIC (MRSA clinical isolates; strain SAU.3017): 4 µg/mL (≈ 13.5 µM)
MIC (MRSA clinical isolates; strain SAU.3021): 0.063 µg/mL (≈ 0.213 µM)
MIC (MRSA clinical isolates; strain SAU.3024): 0.125 µg/mL (≈ 0.422 µM)
MIC (MRSA clinical isolates; strain SAU.3025): 0.063 µg/mL (≈ 0.213 µM)
MIC (MRSA clinical isolates; strain SAU.42): 2 µg/mL (≈ 6.75 µM)
MIC (MRSA clinical isolates; strain SAU.555): 0.25 µg/mL (≈ 0.844 µM)
MIC (MRSA clinical isolates; strain SAU.669): 0.063 µg/mL (≈ 0.213 µM)
MIC (MRSA clinical isolates; strain SAU.846): 0.25 µg/mL (≈ 0.844 µM)
Sensitivity of MRSA clinical isolates (MRSA clinical isolates; panel of MRSA clinical isolates (n=21)): sensitive
MIC (E. faecalis; ATCC19433, ATCC 19433, gyrA WT, parC WT): 8 µg/mL (≈ 27 µM)
MIC (E. faecalis; ATCC29212, ATCC 29212, gyrA WT, parC WT): 8 µg/mL (≈ 27 µM)
MIC (E. faecalis; C21667, gyrA Ser83Ile, parC Ser80Ile): 0.5 µg/mL (≈ 1.69 µM)
MIC (E. faecalis; S206, gyrA Ser83 Arg, parC Ser80Ile): 2 µg/mL (≈ 6.75 µM)
MIC (E. faecium; C21190, gyrA Ser83 Arg, parC Ser80Ile): 8 µg/mL (≈ 27 µM)
MIC (E. faecium; C27282, gyrA Ser83 Arg, parC Ser80Arg): 4 µg/mL (≈ 13.5 µM)
MIC (E. faecium; C27569, gyrA Ser83Ile, parC Ser80Ile): 0.25 µg/mL (≈ 0.844 µM)
MIC (E. faecium; D1, gyrA Ser83Ile, parC Ser80Ile): 0.5 µg/mL (≈ 1.69 µM)
MIC (E. faecium; S34, gyrA Ser83Ile, parC Ser80 Arg): 1 µg/mL (≈ 3.37 µM)
MIC (E. faecium; S51, gyrA Ser83Ile, parC Ser80Ile): 0.5 µg/mL (≈ 1.69 µM)
MIC (E. faecium; S122, gyrA Ser83Ile, parC Ser80Ile): 0.5 µg/mL (≈ 1.69 µM)
MIC (E. faecium; S226, gyrA Ser83Ile, parC Ser80Ile): 0.5 µg/mL (≈ 1.69 µM)
MIC (E. faecium; S235, gyrA Ser83Ile, parC Ser80Ile): 0.5 µg/mL (≈ 1.69 µM)
MIC (E. faecium; S344, gyrA Ser83Ile, parC Ser80Ile): 0.5 µg/mL (≈ 1.69 µM)
MIC (E. faecium; S557, gyrA Ser83Ile, parC Ser80Ile): 0.25 µg/mL (≈ 0.844 µM)
MIC (E. faecium; SL152, gyrA Ser83Ile, parC Ser80Ile): 0.5 µg/mL (≈ 1.69 µM)
MIC (E. faecium; U63, gyrA Ser83 Arg, parC Ser80Ile): 4 µg/mL (≈ 13.5 µM)
MIC (E. faecium; U275, gyrA Ser83Cys Glu87Gly, parC Ser80Ile): 2 µg/mL (≈ 6.75 µM)
MIC (E. faecium; U464, gyrA Ser83 Arg, parC Ser80Ile): 2 µg/mL (≈ 6.75 µM)
MIC (E. faecium; U503, gyrA Ser83 Arg, parC Ser80Ile): 4 µg/mL (≈ 13.5 µM)
MIC (E. faecium; U563, gyrA Ser83 Arg, parC Ser80Ile): 2 µg/mL (≈ 6.75 µM)
MIC (Ent. Spp.): 0.5 µg/mL (≈ 1.69 µM)
Sensitivity of VRE clinical isolates (VRE clinical isolates): sensitive
MIC (E. coli; ATCC25922, E. coli ATCC 25922, gyrA none, parC none): > 24 µg/mL
MIC (E. coli; MG1655, E. coli MG1655): > 24 µg/mL
MIC (E. coli; MG1655, E. coli MG1655 ∆AcrB (permeabilized strain)): 2 µg/mL (≈ 6.75 µM)
MIC (P. aeruginosa; PA1586 (CIP resistant clinical isolate)): > 24 µg/mL
MIC (P. aeruginosa; Pseudomonas aeruginosa, P. aeruginosa PAO1, read-out: MIC): > 24 µg/mL
MIC (P. aeruginosa; Pseudomonas aeruginosa, read-out: MIC): > 24 µg/mL
MIC (A. baumannii): > 24 µg/mL
MIC (A. baumannii; ATCC19606, A. baumannii ATCC 19606, read-out: MIC): > 24 µg/mL
inhibition of WT DNA gyrase (increase in L or OC DNA) (WT E. coli DNA gyrase): poor inhibitors of WT DNA gyrase
inhibition of S83R DNA gyrase (S83R E. coli DNA gyrase): buildup of OC DNA similar to that seen with S83L DNA gyrase only at a slightly higher concentration or longer time points
MIC ([2]; Staphylococcus aureus, ATCC29213, high-level CIP-resistant strains, second step, S84L mutation in GyrA): 0.06 to 0.12 µg/mL (≈ 0.202 to 0.405 µM)
MIC ([2]; low-level CIP-resistant strains, first step, WT gyrA, mutation in ParC (for example E84K or S80F)): not sensitive
resistant colonies on treatment (S. aureus (ATCC 29213)): resistant colonies were observed
AUC [3, 5]: 44000 ng·h/mL
Tmax [3, 5]: 1.2 h
half-life [3, 5]: 0.9 h
Cmax ([3]; female, C57BL/6, mouse, in vivo, mice, 50 mg kg^−1 oral dose, serum): 42.6 µM
Cmax ([3]; female, C57BL/6, mouse, mice, 50 mg kg^−1 oral dose, serum): 12800 ng/mL and ~50 µM
oral bioavailability / serum exposure ([3]; mice, 50 mg kg^−1 oral dose): good bioavailability
area under the curve ([3]; mice, 50 mg kg^−1 oral dose, serum): 44000 ng·h/mL
tolerability ([4]; increasing doses, highest dose evaluated 50 mg kg^−1 by oral gavage): well tolerated up to the highest dose evaluated
maximal tolerated dose ([4]; oral gavage): > 50 mg/kg
solubility at 1 h (physchem): 121 µM (≈ 35.9 µg/mL)
